These results are taken from ChEMBL document CHEMBL5215011, “Isolation and Structure Elucidation of Compounds from Sesamum alatum and Their Antiproliferative Activity against Multiple Myeloma Cells” (J Nat Prod, 2022).

Holding throughout (assay type): functional, cell-based
The test system of one test is RPMI-8226. Description: Antiproliferative activity against human RPMI-8226 cells assessed as inhibition of cell proliferation incubated for 72 hrs by XTT assay. The note with it: RPMI-8226, 72 h.
A short description of test [1]: Antiproliferative activity against human MM1.R cells assessed as inhibition of cell proliferation incubated for 72 hrs by XTT assay. The conditions noted are these: MM.1R. On the technique in general: Formazan colour is commonly taken as a measure of viable cells.
In a further test the test system is MM1.S. Description: Antiproliferative activity against human MM1.S cells assessed as inhibition of cell proliferation incubated for 72 hrs by XTT assay.

As to `CC(C)C[C@H](NC(=O)[C@H](Cc1ccccc1)NC(=O)c1cnccn1)B(O)O` [BORTEZOMIB], the IC50 (as a rule, the point on the concentration scale where inhibition reaches its midpoint) is 0.0056 µM in the test on RPMI-8226, 0.0047 µM in test [1] and 0.0032 µM with MM1.S.
For `CC(C)=CC[C@@H]1C(=O)c2c(O)ccc(O)c2[C@@H]1O`, in the test with RPMI-8226, the IC50 is 27.5 µM.
Turning to `COC1=CC(=O)C=C(OC)C1=O` [2,6-DIMETHOXYQUINONE], the IC50 in the test on RPMI-8226 is 10.8 µM; in test [1], 3 µM; with MM1.S, 1.1 µM.
On the same counts, the results for `CC(C)=CC[C@@]12O[C@@H]1C(=O)c1c(O)ccc(O[C@@H]3O[C@H](CO)[C@@H](O)[C@H](O)[C@H]3O)c1C2=O` are 9.5 µM, 3.6 µM and 4.8 µM.
As for `CC(C)=CC[C@@]12O[C@@H]1C(O)c1c(O)ccc(O)c1C2=O` (stereo partly drawn), the IC50 in the test with RPMI-8226 stood at 18.6 µM.
With `CC(C)(O)/C=C\C(O)=C1C(=O)c2c(O)ccc(O)c2C1=O`, the IC50 in the test on RPMI-8226 came out at 9.6 µM; in test [1], 6.1 µM; in the test on MM1.S, 14.7 µM.
On the same counts, the results for `CC(C)=CC[C@@]12O[C@@H]1C(=O)c1c(O)ccc(O)c1C2=O` are 0.6 µM, 0.9 µM and 0.7 µM.
With `CC(C)=CCC1=C(Cl)C(=O)c2c(O)ccc(O)c2C1=O`, the IC50 in the test with RPMI-8226 is 12.9 µM.
